Laboratory results as given in ChEMBL document CHEMBL5303573, “Mapping human microbiome drug metabolism by gut bacteria and their genes” (Nature, 2019).

Legend:
[1] = The drug is tested on Bifidobacterium breve strain: DSM20213 for biotransformation. The drug concentrations were measured before and after a 12-h incubation by liquid-chromatography-coupled mass spectrometry (LC–MS); settings: 2 µM
[2] = The drug is tested on Bifidobacterium longum subsp. Infantis strain: CCUG52486 for biotransformation. The drug concentrations were measured before and after a 12-h incubation by liquid-chromatography-coupled mass spectrometry (LC–MS); settings: 2 µM
[3] = The drug is tested on Collinsella intestinalis strain: DSM13280 for biotransformation. The drug concentrations were measured before and after a 12-h incubation by liquid-chromatography-coupled mass spectrometry (LC–MS); settings: 2 µM
[4] = The drug is tested on Bacteroides dorei strain: DSM17855 for biotransformation. The drug concentrations were measured before and after a 12-h incubation by liquid-chromatography-coupled mass spectrometry (LC–MS); settings: phocaeicola dorei, 2 µM
[5] = The drug is tested on Bacteroides finegoldii strain: DSM17565 for biotransformation. The drug concentrations were measured before and after a 12-h incubation by liquid-chromatography-coupled mass spectrometry (LC–MS); settings: 2 µM
[6] = The drug is tested on Bacteroides ovatus strain: ATCC8483 for biotransformation. The drug concentrations were measured before and after a 12-h incubation by liquid-chromatography-coupled mass spectrometry (LC–MS); settings: 2 µM
[7] = The drug is tested on Bacteroides pectinophilus strain: ATCC43243 for biotransformation. The drug concentrations were measured before and after a 12-h incubation by liquid-chromatography-coupled mass spectrometry (LC–MS); settings: 2 µM
[8] = The drug is tested on Bacteroides sp. WH2 strain: WH2 for biotransformation. The drug concentrations were measured before and after a 12-h incubation by liquid-chromatography-coupled mass spectrometry (LC–MS); settings: bacteroides sp. wh2, 12 h, 2 µM
[9] = The drug is tested on Anaerococcus hydrogenalis strain: DSM7454 for biotransformation. The drug concentrations were measured before and after a 12-h incubation by liquid-chromatography-coupled mass spectrometry (LC–MS); settings: 2 µM
[10] = The drug is tested on Anaerotruncus colihominis strain: DSM17241 for biotransformation. The drug concentrations were measured before and after a 12-h incubation by liquid-chromatography-coupled mass spectrometry (LC–MS); settings: 2 µM
[11] = The drug is tested on Blautia hansenii strain: DSM20583 for biotransformation. The drug concentrations were measured before and after a 12-h incubation by liquid-chromatography-coupled mass spectrometry (LC–MS); settings: 2 µM
[12] = The drug is tested on Clostridium sp. strain: fecal isolate for biotransformation. The drug concentrations were measured before and after a 12-h incubation by liquid-chromatography-coupled mass spectrometry (LC–MS); settings: 2 µM
[13] = The drug is tested on Eubacterium rectale strain: ATCC33656 for biotransformation. The drug concentrations were measured before and after a 12-h incubation by liquid-chromatography-coupled mass spectrometry (LC–MS); settings: agathobacter rectalis, 2 µM
[14] = The drug is tested on Ruminococcus torques strain: ATCC27756 for biotransformation. The drug concentrations were measured before and after a 12-h incubation by liquid-chromatography-coupled mass spectrometry (LC–MS); format: ADME; parameters: dose 2 uM, timepoint 0 vs 12 hours; settings: 2 µM
[15] = The drug is tested on Providencia rettgeri strain: DSM1131 for biotransformation. The drug concentrations were measured before and after a 12-h incubation by liquid-chromatography-coupled mass spectrometry (LC–MS); format: ADME; parameters: dose 2 uM, timepoint 0 vs 12 hours; settings: 2 µM
[16] = bacteroides eggerthii, 12 h, 2 µM
Description: The drug is tested on Bacteroides eggerthii strain: DSM20697 for biotransformation. The drug concentrations were measured before and after a 12-h incubation by liquid-chromatography-coupled mass spectrometry (LC–MS)

[17] = bacteroides stercoris, 12 h, 2 µM
Description: The drug is tested on Bacteroides stercoris strain: ATCC43183 for biotransformation. The drug concentrations were measured before and after a 12-h incubation by liquid-chromatography-coupled mass spectrometry (LC–MS)

[18] = bacteroides thetaiotaomicron, 12 h, 2 µM
Description: The drug is tested on Bacteroides thetaiotaomicron strain: 7330 for biotransformation. The drug concentrations were measured before and after a 12-h incubation by liquid-chromatography-coupled mass spectrometry (LC–MS)

[19] = limosilactobacillus reuteri cf48-3a, 12 h, 2 µM
Description: The drug is tested on Lactobacillus reuteri CF48-3A strain: BEI HM-102 for biotransformation. The drug concentrations were measured before and after a 12-h incubation by liquid-chromatography-coupled mass spectrometry (LC–MS)

[20] = parabacteroides distasonis, 12 h, 2 µM
Description: The drug is tested on Parabacteroides distasonis strain: ATCC8503 for biotransformation. The drug concentrations were measured before and after a 12-h incubation by liquid-chromatography-coupled mass spectrometry (LC–MS)

| Compound | Bacterial Biotransformation [1] | Bacterial Biotransformation [2] | Bacterial Biotransformation [3] | Bacterial Biotransformation [4] | Bacterial Biotransformation [5] | Bacterial Biotransformation [6] | Bacterial Biotransformation [7] | Bacterial Biotransformation [8] | Bacterial Biotransformation [9] | Bacterial Biotransformation [10] | Bacterial Biotransformation [11] | Bacterial Biotransformation [12] | Bacterial Biotransformation [13] | Bacterial Biotransformation [14] | Bacterial Biotransformation [15] | Bacterial Biotransformation [16] | Bacterial Biotransformation [17] | Bacterial Biotransformation [18] | Bacterial Biotransformation [19] | Bacterial Biotransformation [20] |
| --- | --- | --- | --- | --- | --- | --- | --- | --- | --- | --- | --- | --- | --- | --- | --- | --- | --- | --- | --- | --- |
| CC(C)(C(=O)O)c1ccc(C(O)CCCN2CCC(C(O)(c3ccccc3)c3ccccc3)CC2)cc1 (stereo not drawn) [FEXOFENADINE] | Compound NOT metabolized | Compound NOT metabolized | Compound NOT metabolized | Compound NOT metabolized | Compound NOT metabolized | Compound NOT metabolized | Compound NOT metabolized | Compound NOT metabolized | Compound NOT metabolized | Compound NOT metabolized | Compound NOT metabolized | Compound NOT metabolized | Compound NOT metabolized | Compound NOT metabolized | Compound NOT metabolized | Compound NOT metabolized | Compound NOT metabolized | Compound NOT metabolized | Compound NOT metabolized |  |
| CC(C)[C@H]1CC[C@H](C(=O)N[C@H](Cc2ccccc2)C(=O)O)CC1 [NATEGLINIDE] | Compound NOT metabolized | Compound metabolized | Compound NOT metabolized |  | Compound NOT metabolized | Compound NOT metabolized | Compound NOT metabolized | Compound NOT metabolized | Compound NOT metabolized | Compound NOT metabolized | Compound NOT metabolized | Compound NOT metabolized | Compound NOT metabolized | Compound NOT metabolized | Compound NOT metabolized | Compound NOT metabolized | Compound NOT metabolized | Compound NOT metabolized | Compound NOT metabolized | Compound NOT metabolized |
| CN1CCc2c(c3ccccc3n2Cc2ccccc2)C1.CN1CCc2c(c3ccccc3n2Cc2ccccc2)C1.O=S(=O)(O)c1cccc2c(S(=O)(=O)O)cccc12 | Compound NOT metabolized | Compound NOT metabolized | Compound NOT metabolized | Compound NOT metabolized | Compound NOT metabolized | Compound NOT metabolized | Compound NOT metabolized | Compound NOT metabolized | Compound NOT metabolized | Compound NOT metabolized | Compound NOT metabolized | Compound NOT metabolized | Compound NOT metabolized | Compound NOT metabolized | Compound NOT metabolized | Compound NOT metabolized | Compound NOT metabolized | Compound NOT metabolized | Compound NOT metabolized |  |
| COC(=O)Nc1nc2ccc(C(=O)c3ccccc3)cc2[nH]1 [MEBENDAZOLE] | Compound NOT metabolized | Compound NOT metabolized | Compound NOT metabolized | Compound metabolized |  | Compound NOT metabolized | Compound NOT metabolized | Compound NOT metabolized | Compound NOT metabolized | Compound NOT metabolized | Compound metabolized | Compound metabolized | Compound NOT metabolized | Compound NOT metabolized | Compound NOT metabolized | Compound metabolized | Compound metabolized |  |  | Compound metabolized |
| CCc1nn(CCCN2CCN(c3cccc(Cl)c3)CC2)c(=O)n1CCOc1ccccc1 [NEFAZODONE] | Compound NOT metabolized | Compound NOT metabolized | Compound NOT metabolized |  |  | Compound NOT metabolized | Compound NOT metabolized | Compound NOT metabolized | Compound NOT metabolized | Compound NOT metabolized | Compound NOT metabolized | Compound NOT metabolized | Compound NOT metabolized | Compound NOT metabolized | Compound NOT metabolized | Compound NOT metabolized | Compound NOT metabolized | Compound NOT metabolized | Compound NOT metabolized | Compound NOT metabolized |
| NC(=O)N1c2ccccc2CC(=O)c2ccccc21 [OXCARBAZEPINE] | Compound NOT metabolized | Compound metabolized | Compound NOT metabolized | Compound metabolized | Compound NOT metabolized | Compound NOT metabolized | Compound metabolized | Compound NOT metabolized | Compound NOT metabolized | Compound NOT metabolized | Compound NOT metabolized | Compound NOT metabolized | Compound metabolized | Compound metabolized | Compound metabolized | Compound NOT metabolized | Compound metabolized |  | Compound metabolized | Compound metabolized |
| Br.COc1ccc2c(c1)[C@]13CCCC[C@@H]1[C@H](C2)N(C)CC3.O [DEXTROMETHORPHAN HYDROBROMIDE] | Compound NOT metabolized | Compound NOT metabolized | Compound NOT metabolized | Compound NOT metabolized | Compound NOT metabolized | Compound NOT metabolized | Compound NOT metabolized | Compound NOT metabolized | Compound NOT metabolized | Compound NOT metabolized | Compound NOT metabolized | Compound NOT metabolized | Compound NOT metabolized | Compound NOT metabolized | Compound NOT metabolized | Compound NOT metabolized | Compound NOT metabolized | Compound NOT metabolized | Compound NOT metabolized |  |
| CNCC[C@H](Oc1cccc2ccccc12)c1cccs1 [DULOXETINE] | Compound NOT metabolized | Compound NOT metabolized | Compound NOT metabolized | Compound metabolized | Compound NOT metabolized | Compound metabolized | Compound NOT metabolized |  | Compound NOT metabolized | Compound NOT metabolized | Compound metabolized | Compound metabolized | Compound NOT metabolized | Compound NOT metabolized | Compound metabolized | Compound NOT metabolized | Compound metabolized |  | Compound NOT metabolized | Compound NOT metabolized |
